The results in this text go back to a melting point compilation (Tetko et al.; mined from patent text by program, amines drawn as free bases though some values may be those of a salt).

As for `O=C(NCC1Cc2cc(Br)cc3[nH]c(=O)c(=O)n1c23)c1ccccc1` (stereo unspecified), the melting point (in general, the temperature of the solid-liquid transition) was 180 to 182 °C. The figure for `O=c1ccccn1C1=CC(CF)(CF)Oc2ccc(C(F)(F)F)cc21` is 139 to 140 °C; for `CC(C)Cc1ccc2ccc(=O)[nH]c2n1` it is 135 to 137 °C.

For the molecule `COc1ccc(C(=O)O)c(COc2ccc(CC(=O)O)cc2)c1`, the melting point lay in the range of 198 to 200 °C.

In turn, `NS(=O)(=O)c1ccc(-n2nc(C(F)F)cc2-c2cnccn2)cc1` gave a melting point of 191 to 194 °C. `CC(C)n1c(=O)[nH]c(C(F)(F)F)c(Br)c1=O` yielded a melting point of 149 to 150 °C. In turn, `CCOC(=O)c1[nH]c2cc(Cl)cc(Cl)c2c1NCC(=O)c1cccc(F)c1` had a melting point of 234 to 235 °C. Molecule `COc1cc(C=C(C#N)C(=O)NCCC(C)NC(=O)C(C#N)=Cc2cc(O)c(O)c(OC)c2)cc(O)c1O` (stereo unspecified) returned a melting point greater than 300 °C. With `O=C(N[C@H](Cc1ccc(F)cc1)[C@@H](O)c1ccc(C(F)(F)F)cc1)c1cccc2ccccc12` (racemic) the figure was 207 to 208 °C. As to `CCc1nc2c(cnn2CC)c(NC2CCOCC2)c1CNC(=O)c1cc(C)cc(C(=O)NCc2ccc(OC)c(-c3cccc(C=O)c3)c2)c1`, the melting point fell in the range of 117 to 119 °C. Regarding `CCOC1=NS(=O)(=O)c2cccc([N+](=O)[O-])c21`, the melting point lay within 190 to 191 °C. The figure for `CCC(C)(C)Nc1c(N(Cc2ccc(Cl)cc2Cl)C(C)=O)c(=O)c1=O` is 114 to 116 °C; for `CC(C)=NNc1cc2c(nn1)CCN(C(=O)c1ccc(Cl)cc1Cl)C2` it is 211 to 214 °C. In turn, `CCCOc1c(-c2ccccc2)nn(C)c1-c1ccccc1` registered a melting point of 56 to 57 °C. Regarding `Cn1ncc2c1-c1c(Oc3ccc(N)cc3)sc(C(N)=O)c1CC2`, the melting point fell in the range of 214 to 216 °C. With `CC1CC(=O)NN=C1c1ccc(NC(=O)C2(Cl)CC2)cc1` (stereo unspecified) the figure was 189 to 190 °C; with `CCCCCCOc1ccc(-c2ncc(-c3ccc(O)c(F)c3F)cn2)cn1`, 150 to 155 °C. Molecule `CNC(=O)n1nc(Oc2c(Cl)cc(C(F)(F)F)cc2Cl)cc1C` gave a melting point of 113 to 114 °C.

As for `COC(=O)[C@@H](C)c1ccc2c(Br)c(OC)ccc2c1`, the melting point was 94 to 95 °C.

Molecule `COCc1nc(N)nc(SC)n1` displayed a melting point of 134 to 136 °C.

In turn, `COC(=O)c1cc(-c2nc(COc3ccc(COc4nn(-c5ccccc5)cc4C=O)cc3OC)c(C)o2)ccc1C` yielded a melting point of 195 to 196 °C. Take `COC(C)(C)[C@H]1CCCN1NC(=O)Nc1cccc2c1C(=O)c1c-2n[nH]c1-c1ccc(N2CCNCC2)cc1`: the melting point turned out to be 218 °C. On to `C#CCN1C(=O)COc2cc(F)c(N(C(=O)CCl)C(=O)C3=C(C(=O)OC)CCCC3)cc21`, for which the melting point lay within 156 to 158 °C. `COc1ccc(C(=O)[C@H]2CC=CC[C@H]2C(=O)O)c2c1OC(C)(C)C2` (relative stereo) yielded a melting point of 154 to 156 °C. With `CCOC(=N)c1sc2ccc(Cl)cc2c1O`, the melting point was 236 °C. For `O=S(=O)(CCO)C(F)(F)C(O)(Cn1cncn1)c1ccc(F)cc1F` (stereo unspecified), the melting point was in the range of 113 to 115 °C.

As for `CCn1cc(C(=O)O)c(=O)c2c(F)c(F)c(N3CCSCC3)c(F)c21`, the melting point lay in the range of 308 to 310 °C.

As for `CC(C)CC(NC(=O)C(C)NC(=O)C(CC(=O)N1CCOCC1)Cc1cccc2ccccc12)C(O)C(=O)OC(C)C` (mixture of isomers), the melting point was in the range of 178 to 183 °C. `CCOC(=O)CCc1ccc2oc(Cc3ccc4ccccc4c3)nc2c1` gave a melting point of 81 to 82 °C. With `O=C(NNC(=O)c1ccccc1O)c1ccccc1O`, the melting point turned out to be 303 °C. `Cc1nc2cc3c(cc2c(=O)[nH]1)C(N(C)c1ccc(C(=O)NC(CCc2nnn(CC(=O)O)n2)C(=O)O)c(F)c1)CC3` (mixture of isomers) had a melting point of 196 to 199 °C. `CCC(O)(c1ccc(Cl)cc1)c1ccc(OCc2cccc(C)n2)cc1` (stereo unspecified) displayed a melting point of 100 to 101 °C. The molecule `CC#CCOc1ccc(SC(CCCCCC)C(=O)O)cc1` (stereo unspecified) had a melting point of 125 °C. With `NC(=O)c1c(N)n[nH]c1N1CCN(Cc2ccccc2)CC1`, the melting point is 234 to 236 °C.

Turning to `COC(=O)C(=C(C)C)N1CC(NC(=O)OCc2ccccc2)C1=O` (stereo unspecified), the melting point was 135 to 137 °C.

In turn, `Brc1ccsc1Cc1c[nH]cn1` had a melting point of 212 to 214 °C. As for `Cc1ccc(-c2ccc(C(=O)Nc3cc4ncc(CN5CCCC5)cc4cc3C)cn2)cc1`, the melting point lay within 214 to 218 °C.

Consider `CCCc1nc2c(N)nc3c(c2n1CCCCCC(=O)N1CCOCC1)CCCC3`, for which the melting point is 162 to 163 °C.

`Cc1cc(NC(=O)NS(=O)(=O)c2ccccc2)cc(C)c1S(=O)(=O)C[N+](=O)[O-]` yielded a melting point of 140 to 142 °C. The figure for `CC1(CN2CCN(C(=O)OCc3ccc(C(=O)c4ccccc4)cc3)CC2)Cn2cc([N+](=O)[O-])nc2O1` (stereo unspecified) is 105 to 107 °C.

The molecule `COc1ccc(S(=O)(=O)N2C(=O)C(c3ccccc3OC)(N3CCC[C@H]3C(=S)N(C)C)c3cc(Cl)ccc32)c(OC)c1` (stereo partly specified) came in with a melting point of 164 °C. With `CN1CCc2cc(-c3ccc4c(c3)CCN(CCN3CCCC3)C4=O)ccc2C1=O` the figure was 225 to 226 °C.

In the case of `NC(=O)CNC(=O)c1cc(-c2cccc3cc(Cc4cc(F)cc(Cl)c4)sc23)ccn1`, the melting point was in the range of 157 to 158 °C. As for `O=C(O)Cc1ccc2c(c1)C(=O)c1cc(Cl)ccc1CO2`, the melting point was in the range of 169 to 171 °C. The figure for `CCC1CCCCN1C(=O)C=Cc1c(-c2ccncc2)nn2ccccc12` (stereo unspecified) is 150 to 153 °C; for `COCOc1ccc(CCCO)c(Oc2ncc(C(F)(F)F)cc2Cl)c1` it is 92.5 to 93.5 °C. With `COc1ccc(C(=N)N)cc1C`, the melting point fell in the range of 151 to 153 °C.

Molecule `O=C(c1ccccc1)n1c(=O)[nH]cc(F)c1=O` yielded a melting point of 170 °C. In turn, `Cn1ncc(N)c1C(N)=O` had a melting point of 158 to 160 °C. Regarding `O=[N+]([O-])c1ccccc1OCc1csc(-c2ccccc2)n1`, the melting point was 95 °C. `COc1ccc(C(=NO)c2ccc(Cl)cc2)c(O)c1` came in with a melting point of 159 °C. Molecule `C=Cc1cc(OC)cc2cc(-c3ccc(OC)cc3)oc12` gave a melting point of 182 to 184 °C. The molecule `Cc1ccc(CC(C)NCC(O)c2ccccc2)cc1` (stereo unspecified) yielded a melting point of 74 to 94 °C. The figure for `COc1cc2c(cc1C(F)(F)F)N(C(=O)Nc1csc(-c3cccnc3)n1)CC2` is greater than 200 °C; for `CC(=O)NC1CCN(Cc2cnc3cc(NC(=O)c4ccc(-c5ccc(Cl)cc5)cc4)ccc3c2)C1` (stereo unspecified) it is greater than 285 °C; for `CCOC(=O)C(=CNc1c(C#N)cnn1-c1ccc(Cl)c(Cl)c1Cl)C(=O)OCC` it is 157 to 158 °C. In turn, `COc1cc(CCl)ccc1C12CC3CC(CC(C3)C1)C2` displayed a melting point of 77 to 78 °C. For `COc1c(O)c(C(C)=O)c(OC)c2c1OCC2`, the melting point is 100 to 101 °C. As for `O=C=Nc1c2c(cc3c1CCC3)CCC2`, the melting point lay in the range of 40 to 41 °C. In the case of `NC(Cc1ccccc1-c1ccc(C(=O)N2Cc3ccc(C(=O)NCc4cccnc4)n3Cc3ccccc32)cc1)=NO`, the melting point lay within 131 to 134 °C. Molecule `CC(=C[N+](=O)[O-])c1ccccc1O` gave a melting point of 110 to 112 °C.
